Assay [1] deals with trimethylation level of histone H3K27 in G401 cells. The assay is described as follows: ELISA (H3K27 trimethylation) analysis in G401 cells. It is filed as cell-based. The settings on record: Homo sapiens, G-401, 72 h, H3K27me3 normalized by H3. As for the experimental part: Example 54: ELISA (H3K27 Trimethylation) Analysis
Representative compounds of the present disclosure are diluted in DMSO with 3-fold gradient, and 10 concentration gradients are tested per compound. The maximum testing concentration is 10 μM. The compound is diluted 200-fold into G401 cells cultured in 96-well plates (the final concentration of DMSO is 0.5%). After the cells are cultured for 72 hours, the trimethylation level of histone H3K27 is detected by ELISA method.
Histone extraction: compound-treated cells in a 96-well plate are washed 3 times with 1×PBS (10×PBS buffer (80 g NaCl (Sigma, Product No. S3014), 2 g KCl (Sigma, Product No. 60128), 14.4 g Na2HAPO4 (Sigma, Product No. S5136) and 2.4 g KH2PO4 (Sigma, Product No. P9791) are added to 1 L water, pH to 7.4), and 100 μL of 0.4N HCl is added to each well. The 96-well plate is placed at 4° C. and gently shaken for 2 hours to lyse the cells. The cell lysate is then neutralized with 80 μL of neutralization buffer (0.5M disodium hydrogen phosphate, pH 12.5, 2.5 mM DTT; 1% cocktail (Sigma, Product No. P8340) (mixing the cell lysate and neutralization buffer thoroughly).
ELISA detection method: the cell lysates are transferred in parallel to two 384-well assay plates (PerkinElmer, OptiPlate-384HB, Product No. 6007290). One plate is used to detect the trimethylation level of H3K27, and the other plate is used to measure the level of H3. PBS is adjusted to a final volume of 50 μL/well. The wells are coated overnight at 4° C. On the next day, the solution in the wells was discarded. TBST buffer (1 xTBS (10×TBS: 24.2 g Tris (Sigma, Product No. T6066) and 80 g NaCl (Sigma, Product No. S3014) are added to 1 L water, and pH is adjusted to 7.6 with HCl) and 0.1% Tween-20) is used to wash it 5 times, and the water is dried on absorbent papers. 70 μL of blocking buffer (TBST, 5% BSA) is added to the coated reaction wells, and the wells are incubated for 1 hour at room temperature. The blocking buffer was discarded, and the primary antibody is added (30 μL/well). The required primary antibodies are diluted with blocking buffer, and the dilution ratios were as follows: anti-H3K27me3 antibody (Cell Signaling Technology, Product No. 9733), 1:2000 dilution; anti-H3 antibody (Cell Signaling Technology, Product No. 4499), 1:10000 dilution. After adding the primary antibody, the wells are incubated at room temperature for 1 hour. After washing with TBST for 5 times, the water are dried. The secondary antibody (30 μL/well) is added to each reaction well, and the wells are incubated at room temperature for 1 hour. Secondary antibody (anti-rabbit antibody (Jackson ImmunoResearch, Product No. 111-035-003)) is used after dilution 2000-fold in blocking buffer. After 1 hour, it is washed with TBST and dried. 30 μL of ECL substrate (Pierce, Product No. 34080) is added to each well and centrifuged for 30 seconds at 2000 rpm. Signal of each sample is detected using Molecular Devices, SpectraMax. Data processing: H3K27 methylation readings are first normalized by H3 signal. 0.500 DM8)-treated sample is used as a control, and the inhibition percentage of the compound is calculated. The data is fitted to a dose-response curve using the GraphPad prisim5 program, obtaining the IC50 values of the test compounds.
(An ELISA detects its analyte on a solid surface through an enzyme-linked reagent.)

Assay [2] has as its system B-cell non-Hodgkin lymphoma cells KARPAS-422. The assay is described as follows: Cell proliferation analysis, KARPAS-422, 13 days, CellTiter-Glo. It is filed as cell-based, Human. The following applies: Homo sapiens, KARPAS-422, 312 h, Karpas-422, 13 days. As for the experimental part: Example 55: Cell Proliferation Analysis
Human B-cell non-Hodgkin lymphoma cells KARPAS-422 S were cultured in culture flasks using standard cell culture conditions. The culture medium contains 15% fetal bovine serum (FBS, Invitrogen, product number 10099-141), 1% penicillin/streptomycin solution (P/S) RPMI-1640 (Invitrogen, product number 11875), and the culture flask is placed and cultured in a sterile incubator at 37° C., 95% relative humidity, and 5% CO2. In order to detect the effect of PRC2 inhibitors on cell proliferation, cells in the exponential growth phase were seeded into 96-well plates (Corning, product number 3904) at a density of 1×10^4 cells/well, and 100 μL of medium was added to each well. Subsequently, the compounds disclosed herein at different concentrations were added to the wells seeded with cells (9 concentration gradients were set for each compound, and the highest detection concentration was 10 μM, 3-fold gradient dilution), and 2 repeats in parallel were set for each treatment concentration. The final concentration of DMSO is 0.5%. Then the number of surviving cells was counted with Vi-CELL (Beckman Coulter) every 3-4 days. The cells counted each time were seeded into a new 96-well plate at the same density (1×10^4 cells/well). The wells were supplemented with fresh medium to 100 μL, and different concentrations of the compound were added at the same time. The cells were cultured until the 13th day, on which 100 μL of CellTiter-Glo (CellTiter-GloCellTiter-GloCellTiter-GloCTG) (Promega, Product No. G7573) was added to each well. The plate was placed for 10-20 minutes in the dark at room temperature, and Molecular Devices and SpectraMax i3X were used to read the luminous signal. The data were fitted to a dose-response curve using GraphPad prisim5 and the IC50 values of the tested compounds were obtained.
On the technique in general: In ATP-based viability assays light output follows the ATP content of the culture.

The target of assay [3] is T1, EED protein (full-length, His6 tag) binding to H3K27me3 polypeptide (Homo sapiens, UniProt O75530).
T1 construct: The full-length EED protein (441 amino acids) with His6 tag
The assay can be described thus: AlphaScreen evaluation of blocking the binding of EED to H3K27Me3. The following applies: EED / biotinylated H3K27me3 peptide competition. On the procedure:
Example 53: Evaluation of the Effect of the Compound in Blocking the Binding of EED to H3K27Me3 by AlphaScreen (a-Screening) Method
First, compound solutions with different concentration gradients are prepared. Compound powder is dissolved in DMSO to form mother liquor. 1.5 μL of the compound mother liquor is taken to 198.5 μL reaction buffer (25 mM HEPES (pH 8.0), 50 mM NaCl, 0.015% Tween 20, 0.5% BSA) and the solution is mix uniformly, and then 3-fold gradient dilution is performed with the above buffer containing 0.75% DMSO. 9 different test concentrations are set for the same compound. 5 μL of compounds with different concentration gradients was taken to ProxiPlate-384 Plus, White detection plate (PerkinElmer, 6008280), and 2 parallel replicates are set for each concentration gradient.
Next, a binding blocking reaction is performed. The full-length EED protein (441 amino acids) with His6 tag is diluted to 60 nM with the above buffer, and the biotinylated polypeptide fragment H3K27me3 (amino acids 19-33) (Biotinylated-H3K27me3) is diluted to 75 nM with the same buffer. 5 μL of 75 nM peptide fragments and 5 μL of 60 nM protein are transferred to the testing wells containing the compound respectively. The testing plate is sealed with a film, and is incubated for 30 minutes at room temperature.
Finally, AlphaScreen method is used for detection. Before use, nickel chelate acceptor beads and streptavidin donor beads (Perkin Elmer, product number 6760619M) are mixed into the above reaction buffer at a ratio of 1:1, and then 5 μL of the above pre-mixed testing solution is added to each testing well. The final concentration of the donor beads and acceptor beads is 5 μg/mL. The testing plate is covered with tin foil and placed at room temperature in the dark for 1 hour. Signals are read using an AlphaScreen detector on a Spectra max i3. The AlphaScreen signal is normalized according to the readings obtained from the positive control (maximum signal control) and negative control (minimum signal control) to give the inhibition rate of different concentrations of the compound. After that, non-linear regression analysis was performed with GraphPad Prism 5, and dose-response equation Y=Bottom+(Top−Bottom)/(1+10^((Log IC50−X)*HillSlope)) is used to make an inhibition curve, obtaining the IC50 value of each compound. […]
For orientation: Bead proximity is the source of the signal in Alpha formats.

As a reminder, the IC50 is the concentration that gives 50% inhibition.

T1 sequence (O75530 whole entry): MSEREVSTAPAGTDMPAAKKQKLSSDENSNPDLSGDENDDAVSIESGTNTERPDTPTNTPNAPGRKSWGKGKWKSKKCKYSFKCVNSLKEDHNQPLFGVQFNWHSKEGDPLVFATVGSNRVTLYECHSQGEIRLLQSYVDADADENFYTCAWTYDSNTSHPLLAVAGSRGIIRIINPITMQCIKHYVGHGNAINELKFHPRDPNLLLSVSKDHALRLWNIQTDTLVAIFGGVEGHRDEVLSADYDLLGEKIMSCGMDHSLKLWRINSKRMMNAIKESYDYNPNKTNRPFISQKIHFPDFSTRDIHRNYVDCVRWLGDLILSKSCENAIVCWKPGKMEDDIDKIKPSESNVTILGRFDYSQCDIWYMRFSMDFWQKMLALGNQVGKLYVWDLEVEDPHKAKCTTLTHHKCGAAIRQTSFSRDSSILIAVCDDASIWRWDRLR

As for `OC(CF)(CF)c1ccc(-c2cnc(NCc3c(F)ccc4c3CCO4)n3cnnc23)c2ncnn12` [1,3-difluoro-2-[8-(5-{[(5-fluoro-2,3-dihydro-1-benzofuran-4-yl)methyl]amino]-[1,2,4]triazolo[4,3-c]pyrimidin-8-yl)-[1,2,4]triazol[1,5-a]pyridin-5-yl]propan-2-ol], the values for the IC50 in assay [1], in assay [2] and in assay [3] were 0.0011 µM, 0.0041 µM and 0.0069 µM, respectively.
As to `CC(C)(O)Cc1ccc(-c2cnc(NCc3c(F)ccc4c3CCO4)n3cnnc23)c2ncnn12` [1-(8-(5-(((5-fluoro-2,3-dihydrobenzofuran-4-yl)methyl)amino)-[1,2,4]triazolo[4,3-c]pyrimidin-8-yl)-[1,2,4]triazolo[1,5-a]pyridin-5-yl)-2-methylpropan-2-ol], the IC50 in assay [1] was 0.0032 µM; in assay [2], 0.0102 µM; in assay [3], 0.0113 µM.
`CCC(O)c1ccc(-c2cnc(NCc3c(F)ccc4c3CCO4)n3cnnc23)c2ncnn12` (stereo not drawn) [1-(8-(5-(((5-fluoro-2,3-dihydrobenzofuran-4-yl)methyl)amino)-[1,2,4]triazolo[4,3-c]pyrimidin-8-yl)-[1,2,4]triazolo[1,5-a]pyridin-5-yl)propan-1-ol]: the half-maximal inhibitory concentration (IC50) is 0.0026 µM in assay [1], 0.0032 µM in assay [2] and 0.0065 µM in assay [3].
On to `OC1(c2ccc(-c3cnc(NCc4c(F)ccc5c4CCO5)n4cnnc34)c3ncnn23)CC1` [1-[8-(5-{[(5-fluoro-2,3-dihydro-1-benzofuran-4-yl)methyl]amino]-[1,2,4]triazolo[4,3-c]pyrimidin-8-yl)-[1,2,4]triazol[1,5-a]pyridin-5-yl]cyclopropan-1-ol], for which the half-maximal inhibitory concentration (IC50) amounted to 0.0009 µM in assay [1], 0.0033 µM in assay [2] and 0.0047 µM in assay [3].
The corresponding values for `OC1(c2ccc(-c3cnc(NCc4c(F)ccc5c4CCO5)n4cnnc34)c3ncnn23)CCC1` [1-[8-(5-{[(5-fluoro-2,3-dihydro-1-benzofuran-4-yl)methyl]amino]-[1,2,4]triazolo[4,3-c]pyrimidin-8-yl)-[1,2,4]triazolo[1,5-a]pyridin-5-yl]cyclobutan-1-ol] are 0.0003 µM, 0.0016 µM and 0.0055 µM.
The corresponding values for `CC(O)(CF)c1ccc(-c2cnc(NCc3c(F)ccc4c3CCO4)n3cnnc23)c2ncnn12` (stereo not drawn) [1-fluoro-2-[8-(5-{[(5-fluoro-2,3-dihydro-1-benzofuran-4-yl)methyl]amino}-[1,2,4]triazolo[4,3-c]pyrimidin-8-yl)-[1,2,4]triazolo[1,5-a]pyridin-5-yl]propan-2-ol] are 0.0011 µM, 0.0022 µM and 0.0043 µM.
The corresponding values for `CC(C)(O)c1c(F)cc(-c2cnc(NCc3c(F)ccc4c3CCO4)n3cnnc23)c2ncnn12` [2-(6-fluoro-8-(5-(((5-fluoro-2,3-dihydrobenzofuran-4-yl)methyl)amino)-[1,2,4]triazolo[4,3-c]pyrimidin-8-yl)-[1,2,4]triazolo[1,5-a]pyridin-5-yl)propan-2-ol] are 0.0059 µM, 0.0146 µM and 0.0057 µM.
As for `Cc1nc2c(-c3cnc(NCc4c(F)ccc5c4CCO5)n4cnnc34)cnc(C(C)(C)O)n2n1` [2-(8-(5-(((5-fluoro-2,3-dihydrobenzofuran-4-yl)methyl)amino)-[1,2,4]triazolo[4,3-c]pyrimidin-8-yl)-2-methyl-[1,2,4]triazolo[1,5-c]pyrimidin-5-yl)propan-2-ol], the IC50 in assay [1] was 0.0006 µM; in assay [2] it was 0.0065 µM; in assay [3] it was 0.0084 µM.
Turning to `Cc1cc(-c2cnc(NCc3c(F)ccc4c3CCO4)n3cnnc23)c2ncnn2c1C(C)(C)O` [2-(8-(5-(((5-fluoro-2,3-dihydrobenzofuran-4-yl)methyl)amino)-[1,2,4]triazolo[4,3-c]pyrimidin-8-yl)-6-methyl-[1,2,4]triazolo[1,5-a]pyridin-5-yl)propan-2-ol], the IC50 in assay [1] was 0.0024 µM; in assay [2], 0.0087 µM; in assay [3], 0.0075 µM.

The record behind these values is patent US20240182492A1, “AZAHETEROARYL COMPOUND, PREPARATION METHOD THEREFOR, AND APPLICATION THEREOF” (SHANGHAI BLUERAY BIOPHARMA CO., LTD., priority 2021, published 2024).
